Test results published in BindingDB's records for doi:10.7270/Q2DN43N5 (Burnham Center For Chemical Genomics, 2013).
Where a name gives a salt, the structure may show the parent alone.

What follows are compounds tested against T1, Tyrosine-protein phosphatase non-receptor type 22 (Homo sapiens, UniProt Q9Y2R2).
T1 sequence (Q9Y2R2 whole entry): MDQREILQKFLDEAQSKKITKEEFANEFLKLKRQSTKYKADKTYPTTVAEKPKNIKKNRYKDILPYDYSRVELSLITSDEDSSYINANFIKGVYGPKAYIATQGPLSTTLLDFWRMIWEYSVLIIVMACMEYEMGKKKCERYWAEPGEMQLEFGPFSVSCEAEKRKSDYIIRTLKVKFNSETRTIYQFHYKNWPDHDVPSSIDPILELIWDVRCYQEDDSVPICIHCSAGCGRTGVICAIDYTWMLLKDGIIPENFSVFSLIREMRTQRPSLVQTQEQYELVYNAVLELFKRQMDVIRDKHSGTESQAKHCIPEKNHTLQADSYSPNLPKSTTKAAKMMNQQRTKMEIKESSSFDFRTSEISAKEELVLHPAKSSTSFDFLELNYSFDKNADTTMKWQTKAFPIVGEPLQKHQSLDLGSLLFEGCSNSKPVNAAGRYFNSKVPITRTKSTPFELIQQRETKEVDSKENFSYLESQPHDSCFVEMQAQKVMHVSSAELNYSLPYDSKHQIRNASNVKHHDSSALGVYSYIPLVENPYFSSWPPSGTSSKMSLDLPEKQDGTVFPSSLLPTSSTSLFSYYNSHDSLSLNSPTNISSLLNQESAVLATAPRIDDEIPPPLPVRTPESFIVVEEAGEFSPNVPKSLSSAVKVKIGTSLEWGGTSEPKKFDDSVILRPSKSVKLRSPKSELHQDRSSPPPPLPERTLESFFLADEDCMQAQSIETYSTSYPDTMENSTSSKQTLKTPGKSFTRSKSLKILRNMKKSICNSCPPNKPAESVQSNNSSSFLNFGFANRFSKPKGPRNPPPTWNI

| Compound | IC50 |
| --- | --- |
| CC(C)Oc1ccc(-c2nc(NCC3CCCO3)c3ccccc3n2)cc1 (configuration not stated) [SMR000433802] | > 80 µM |
| CCN(c1ccccc1)S(=O)(=O)c1cc(C(=O)O)ccc1C [3-[ethyl(phenyl)sulfamoyl]-4-methyl-benzoic acid] | > 80 µM |
| Fc1ccccc1-c1nc(NC2CCCC2)c2ccccc2n1 [N-cyclopentyl-2-(2-fluorophenyl)quinazolin-4-amine] | > 80 µM |
| COCCNc1nc(NCc2cccc(OC)c2OC)c2sccc2n1 [4-N-[(2,3-dimethoxyphenyl)methyl]-2-N-(2-methoxyethyl)thieno[3,2-d]pyrimidine-2,4-diamine] | > 80 µM |
| COc1ccc(/N=c2\[nH]c(=O)c3cc([N+](=O)[O-])ccc3s2)cc1 [2-(4-methoxyanilino)-6-nitro-1,3-benzothiazin-4-one] | > 80 µM |
| CCOc1cc(CN=Nc2nc(O)c(CC(=O)O)s2)ccc1OCc1ccc(Cl)cc1Cl [2-[2-[(N''E)-N''-[4-(2,4-dichlorobenzyl)oxy-3-ethoxy-benzylidene]hydrazino]-4-keto-2-thiazolin-5-yl]acetic acid] | 22.9 µM |
| Cc1nccc(O)c1Cc1c(Cl)cccc1Cl | > 80 µM |
| Cc1cccc(-c2nc(NCCCN3CCOCC3)c3ccccc3n2)c1 | > 80 µM |
| CCc1nc(N)nc(N)c1-c1ccc(Cl)cc1 | > 80 µM |
| Fc1ccccc1-c1nc(NCCCN2CCOCC2)c2ccccc2n1 [2-(2-fluorophenyl)-N-(3-morpholin-4-ylpropyl)quinazolin-4-amine] | > 80 µM |
| O=C(CCCOc1ccc(Cl)cc1Cl)NNC(=O)c1ccc(NC(=O)c2ccccc2)cc1 [N-[4-[[4-[2,4-bis(chloranyl)phenoxy]butanoylamino]carbamoyl]phenyl]benzamide] | > 80 µM |
| O=C(OCCNc1nc(-c2ccccc2)nc2ccccc12)c1ccncc1 [2-[(2-phenylquinazolin-4-yl)amino]ethyl pyridine-4-carboxylate] | > 80 µM |
| Cc1ccc(-c2nc(NCCN3CCOCC3)c3ccccc3n2)cc1 [SMR000108805] | > 80 µM |
| COc1ccccc1CNc1nc(NCc2cnc(C)cn2)c2sccc2n1 [2-N-[(2-methoxyphenyl)methyl]-4-N-[(5-methylpyrazin-2-yl)methyl]thieno[3,2-d]pyrimidine-2,4-diamine] | > 80 µM |
| Clc1cccc(Cl)c1Cn1cnc(NCc2ccco2)c2ncnc1-2 [SMR000036870] | > 80 µM |
| c1ccc(-c2nc(NCCCN3CCOCC3)c3ccccc3n2)cc1 [SMR000071192] | > 80 µM |
| N=c1c(C(=O)NCc2ccc3c(c2)OCO3)cc2c(=O)n3ccccc3nc2n1Cc1cccnc1 [2-azanylidene-N-(1,3-benzodioxol-5-ylmethyl)-5-oxidanylidene-1-(pyridin-3-ylmethyl)dipyrido[1,2-d:3',4'-f]pyrimidine-3-carboxamide] | > 80 µM |
| Nc1nc(N)c(Cc2ccc(Cl)cc2Cl)c(N)n1 [MLS000691890] | > 80 µM |
| Cc1ccccc1Nc1cc(C)c2c(=O)cccc-2[nH]1 | > 80 µM |

| Compound | IC50 |
| --- | --- |
| CNc1nc(NC)c2c[nH]nc2n1 [4-N,6-N-dimethyl-1H-pyrazolo[3,4-d]pyrimidine-4,6-diamine] | > 80 µM |
| Cc1cccc2nc(-c3ccccc3)nc(N[C@@H](CO)c3ccccc3)c12 [(2R)-2-[(5-methyl-2-phenylquinazolin-4-yl)amino]-2-phenylethanol] | > 80 µM |
| Cc1c(CCC(=O)O)c(=O)oc2c(C)c(OCc3ccccc3Cl)ccc12 [3-[7-[(2-chlorophenyl)methoxy]-4,8-dimethyl-2-oxochromen-3-yl]propanoic acid] | > 80 µM |
| O=c1cc(-c2cc3ccccc3o2)c2cc(O)ccc2o1 [MLS001167639] | > 80 µM |
| O=C(OCCNc1nc(-c2ccccc2)nc2ccccc12)c1cccnc1 [3-pyridinecarboxylic acid 2-[(2-phenyl-4-quinazolinyl)amino]ethyl ester] | > 80 µM |
| CC(C)OCCCNc1nc(-c2ccccc2)nc2ccccc12 [2-phenyl-N-(3-propan-2-yloxypropyl)-4-quinazolinamine;hydrochloride] | > 80 µM |
| Cc1ccc(-c2nc(NCc3cccnc3)c3ccccc3n2)cc1 [Pyridin-3-ylmethyl-(2-p-tolyl-quinazolin-4-yl)-amine] | > 80 µM |
| Cc1nc(N)nc(N)c1-c1ccc([N+](=O)[O-])cc1 [6-methyl-5-(4-nitrophenyl)pyrimidine-2,4-diamine] | > 80 µM |
| c1ccc(-c2cc(N3CCCCC3)c3ccccc3n2)cc1 [2-phenyl-4-piperidin-1-ylquinoline] | > 80 µM |
| c1ccc(-c2nc(NCc3cccnc3)c3ccccc3n2)cc1 | > 80 µM |
| Cc1ccc(-c2nc(NC(=O)CSc3cc(C)c4ccccc4n3)ns2)cc1 [2-[(4-methyl-2-quinolyl)thio]-N-[5-(p-tolyl)-1,2,4-thiadiazol-3-yl]acetamide] | > 80 µM |
| CCc1nc(N)nc(N)c1-c1ccc(Cl)c(N=[N+]=[N-])c1 [5-(3-azido-4-chlorophenyl)-6-ethylpyrimidine-2,4-diamine;ethanesulfonic acid] | > 80 µM |
| CN(C)c1nc(N)nc(/C(C#N)=C/C2CC3C=CC2C3)n1 (configuration not stated) | > 80 µM |
| CCCCC(=O)Nc1ccc(C(=O)NNC(=O)c2ccc(C)c(Br)c2)cc1 [N-(4-{[2-(3-bromo-4-methylbenzoyl)hydrazino]carbonyl}phenyl)pentanamide] | > 80 µM |
| c1ccc(-c2nc(NCCCn3ccnc3)c3ccccc3n2)cc1 [MLS001007021] | > 80 µM |
| Cc1cc(N2CCC(C)CC2)[nH]c2cccc(=O)c1-2 [4-methyl-2-(4-methyl-1-piperidinyl)-1H-quinolin-5-one] | > 80 µM |
| CCc1nc(N)nc(N)c1-c1ccc(NCCN)c([N+](=O)[O-])c1 | > 80 µM |
| c1ccc(-c2cc(NCCN3CCCCC3)c3ccccc3n2)cc1 [SMR000567889] | > 80 µM |
